How the values were obtained:
[1] = Ratio of Cmax in rat to EC50 for human CysLT1 expressed in Syrian hamster AV12-664 cells
[2] = Oral bioavailability in rat at 1 mg/kg; assay type: ADME, organism-based; settings: in vivo
[3] = Ratio of Cmax in rat to EC50 for human mGlu2 receptor expressed in hamster AV12 cells expressing EAAT1
[4] = target: T1, Cysteinyl leukotriene receptor 1 (Homo sapiens, UniProt Q9Y271); assay: Antagonist activity at human CysLT1 receptor expressed in Syrian hamster AV12-664 cells assessed as decrease in LTD4-induced intracellular calcium level pretreated followed by LTD4 addition by fluo-3 dye based FLIPR assay; assay type: functional, cell-based
T1 sequence (Q9Y271 whole entry): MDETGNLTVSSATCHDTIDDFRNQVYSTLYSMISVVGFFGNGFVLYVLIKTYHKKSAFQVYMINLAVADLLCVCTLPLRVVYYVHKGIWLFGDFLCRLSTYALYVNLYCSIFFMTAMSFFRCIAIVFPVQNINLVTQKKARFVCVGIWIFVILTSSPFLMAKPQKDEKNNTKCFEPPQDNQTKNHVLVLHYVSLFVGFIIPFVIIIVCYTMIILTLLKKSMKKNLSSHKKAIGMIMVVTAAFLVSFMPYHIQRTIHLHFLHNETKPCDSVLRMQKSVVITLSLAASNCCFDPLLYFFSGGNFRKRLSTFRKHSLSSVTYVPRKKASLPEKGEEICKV

[5] = target: T2, Metabotropic glutamate receptor 2 (Homo sapiens, UniProt Q14416); assay: Positive allosteric modulation of recombinant human mGlu2 receptor expressed in hamster AV12 cells expressing EAAT1 assessed as potentiation of glutamate-induced intracellular calcium level measured after 24 to 48 hrs by FLIPR assay; assay type: functional, cell-based
Target sequence in this assay (Q14416 whole entry): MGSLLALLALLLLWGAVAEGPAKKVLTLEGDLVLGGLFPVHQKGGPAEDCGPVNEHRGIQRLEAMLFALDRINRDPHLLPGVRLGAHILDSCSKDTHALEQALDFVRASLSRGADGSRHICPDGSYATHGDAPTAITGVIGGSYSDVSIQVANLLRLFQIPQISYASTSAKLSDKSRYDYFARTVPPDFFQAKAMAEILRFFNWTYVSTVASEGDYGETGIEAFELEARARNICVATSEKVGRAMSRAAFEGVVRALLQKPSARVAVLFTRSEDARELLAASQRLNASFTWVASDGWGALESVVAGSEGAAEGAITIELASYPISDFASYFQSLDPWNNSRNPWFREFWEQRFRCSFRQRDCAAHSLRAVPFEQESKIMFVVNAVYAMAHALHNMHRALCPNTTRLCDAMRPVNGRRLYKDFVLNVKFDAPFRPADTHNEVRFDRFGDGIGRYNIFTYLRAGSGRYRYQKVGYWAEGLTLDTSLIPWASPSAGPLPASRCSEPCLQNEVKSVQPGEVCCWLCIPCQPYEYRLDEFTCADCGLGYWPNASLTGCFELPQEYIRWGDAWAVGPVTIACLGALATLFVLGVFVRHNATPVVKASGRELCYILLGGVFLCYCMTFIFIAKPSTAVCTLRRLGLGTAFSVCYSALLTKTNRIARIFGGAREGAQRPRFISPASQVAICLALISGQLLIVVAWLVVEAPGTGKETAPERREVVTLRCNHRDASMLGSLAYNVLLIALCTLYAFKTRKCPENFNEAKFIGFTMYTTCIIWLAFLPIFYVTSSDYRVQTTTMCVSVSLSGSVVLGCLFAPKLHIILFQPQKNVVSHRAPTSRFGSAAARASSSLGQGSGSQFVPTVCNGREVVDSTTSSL

[6] = target: T2, Metabotropic glutamate receptor 2; assay: Positive allosteric modulation of recombinant human mGlu2 receptor expressed in hamster AV12 cells expressing EAAT1 assessed as potentiation of glutamate-induced intracellular calcium level measured after 24 to 48 hrs by FLIPR assay relative to glutamate; assay type: functional, cell-based
Target sequence in this assay (Q14416 19-872 limits assumed): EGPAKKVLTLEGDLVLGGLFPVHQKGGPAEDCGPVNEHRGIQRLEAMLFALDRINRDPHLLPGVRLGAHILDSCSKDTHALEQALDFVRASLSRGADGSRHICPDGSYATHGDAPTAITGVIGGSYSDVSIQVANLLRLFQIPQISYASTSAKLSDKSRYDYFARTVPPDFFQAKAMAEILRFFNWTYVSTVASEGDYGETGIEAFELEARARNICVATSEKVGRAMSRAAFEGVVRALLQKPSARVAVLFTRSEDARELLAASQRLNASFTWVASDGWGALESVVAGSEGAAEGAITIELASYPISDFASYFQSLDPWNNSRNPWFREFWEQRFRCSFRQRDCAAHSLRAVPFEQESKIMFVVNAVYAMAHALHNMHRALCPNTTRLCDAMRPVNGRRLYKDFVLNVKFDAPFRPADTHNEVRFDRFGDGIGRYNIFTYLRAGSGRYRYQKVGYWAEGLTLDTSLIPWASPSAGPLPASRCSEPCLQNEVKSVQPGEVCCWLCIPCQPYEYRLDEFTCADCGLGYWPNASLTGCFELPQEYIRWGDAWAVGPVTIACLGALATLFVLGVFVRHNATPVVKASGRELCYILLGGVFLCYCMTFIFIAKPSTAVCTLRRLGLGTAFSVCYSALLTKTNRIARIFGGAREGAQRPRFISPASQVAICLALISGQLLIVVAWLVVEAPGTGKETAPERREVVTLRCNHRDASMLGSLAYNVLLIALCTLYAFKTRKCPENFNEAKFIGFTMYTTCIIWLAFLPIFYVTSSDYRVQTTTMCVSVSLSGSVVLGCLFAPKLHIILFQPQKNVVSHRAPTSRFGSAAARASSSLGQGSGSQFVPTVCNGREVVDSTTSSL

[7] = Cmax in rat at 1 mg/kg, po; assay type: ADME, organism-based; set-up: dose 1 mg/kg, route oral; settings: in vivo
[8] = test system: Rattus norvegicus; assay: Decrease in plasma protein extravasation in fasted Harlan Sprague-Dawley rat model of migraine compound administered via oral gavage 1 hr prior to electrical stimulation of trigeminal ganglion measured after 15 mins by FITC-BSA based fluorescence assay; assay type: functional
[9] = Tmax in rat at 1 mg/kg, po; assay type: ADME, organism-based; settings: in vivo

| Structure (SMILES) | bioavailability [2] [%] | IC50 [4] [nM] | EC50 [5] [nM] | Emax [6] [%] | Cmax [7] [ng/mL] | Tmax [9] [min] | Ratio [1] | Ratio [3] | Activity [8] | ID100 [8] [mg/kg] |
| --- | --- | --- | --- | --- | --- | --- | --- | --- | --- | --- |
| CC(=O)c1ccc(OCc2ccc(Oc3cccc(-c4nn[nH]n4)c3)cc2)c(C)c1O | 88 | 1430 | 293 to 336 | 85 | 430 | 42 | 0.73 | 3.08 | Dose-dependent effect | 0.1 |
| CCCc1c(OCc2ccc(Oc3ccc(C(=O)O)cn3)cc2)ccc(C(C)=O)c1O |  | 132 | 1430 | 96 |  |  |  |  |  |  |
| CNS(=O)(=O)Cc1ccc2[nH]cc(CCN(C)C)c2c1 [SUMATRIPTAN] |  |  |  |  |  |  |  |  |  | 1 |
| CC(=O)c1ccc(OCc2cccc(Oc3ccc(-c4nn[nH]n4)cn3)c2)c(F)c1O |  | 1500 | 1080 | 91 |  |  |  |  |  |  |
| CCCc1c(OCc2cccc(Oc3cc(-c4nn[nH]n4)ccn3)c2)ccc(C(C)=O)c1O |  | 62.4 | 110 | 90 to 96 |  |  |  |  |  |  |
| CC(=O)c1ccc(OCc2cccc(Oc3ccc(-c4nn[nH]n4)cn3)c2)c(Cl)c1O |  | 475 | 39.3 | 90 |  |  |  |  |  |  |
| CCCc1c(OCc2cccc(Oc3ccc(-c4nn[nH]n4)cn3)c2)ccc(C(C)=O)c1O |  | 203 | 319 | 80 |  |  |  |  |  |  |

Continued by falling IC50 [4], values first:

| bioavailability [2] [%] | IC50 [4] [nM] | EC50 [5] [nM] | Emax [6] [%] | Cmax [7] [ng/mL] | Tmax [9] [min] | Structure (SMILES) | Ratio [1] | Ratio [3] | Activity [8] | ID100 [8] [mg/kg] |
| --- | --- | --- | --- | --- | --- | --- | --- | --- | --- | --- |
|  | 484 | 562 | 74 |  |  | CCCc1c(OCc2ccc(Oc3cccc(-c4nn[nH]n4)c3)nc2)ccc(C(C)=O)c1O |  |  |  |  |
|  | 390 | 227 | 85 |  |  | CCCc1c(OCc2cccc(Oc3ncccc3-c3nn[nH]n3)c2)ccc(C(C)=O)c1O |  |  |  |  |
|  | 346 | 682 | 94 |  |  | CCCc1c(OCc2ccc(Oc3ccc(-c4nn[nH]n4)cn3)cc2)ccc(C(C)=O)c1O |  |  |  |  |
|  | 342 | 87.4 | 101 |  |  | CC(=O)c1ccc(OCc2cccc(Oc3cc(-c4nn[nH]n4)ccn3)c2)c(Cl)c1O |  |  |  |  |
|  | 330 | 310 | 87 |  |  | CCCc1c(OCc2ccc(Oc3ncccc3-c3nn[nH]n3)cc2)ccc(C(C)=O)c1O |  |  |  |  |
|  | 200 | 470 | 88 to 89 |  |  | CCCc1c(OCc2ccc(Oc3cc(-c4nn[nH]n4)ccn3)cc2)ccc(C(C)=O)c1O |  |  |  |  |
|  | 144 | 17.9 | 85 |  |  | CC(=O)c1ccc(OCc2cccc(Oc3ccc(-c4nn[nH]n4)cn3)c2)c(C(F)(F)F)c1O |  |  |  |  |
| 38 | 112 | 6 to 6.4 | 81 | 24.1 | 24 | CC(=O)c1ccc(OCc2cccc(Oc3cc(-c4nn[nH]n4)ccn3)c2)c(C(F)(F)F)c1O | 0.46 | 8.52 | Dose-dependent effect | 0.01 |
|  | 73.6 | 404 | 91 |  |  | CCCc1c(OCc2cccc(Oc3cc(C(=O)O)ccn3)c2)ccc(C(C)=O)c1O |  |  |  |  |
